Assay results published in US7378427B2, “Processes for preparing 6-alkyl-5-arylsulfonyl-dihydrophenanthridines” (Wyeth, priority 2004, dated 2008).

Columns and labels:
C57BL/6 mice = assay: Uterine wet weight increase in ovariectomized C57BL/6 mice; type: in vivo; conditions: EE 0.01 mg/kg/day, test compound 10 mg/kg/day, gavage once daily for 5 weeks, compared to vehicle control
Experimental: Ovariectomized C57BL/6 mice (16-20 g) (Taconic) were separated into groups of 8. After 5-7 days of recuperation, the mice were fed a chow diet or an atherogenic diet (15.75% fat, 1.25% cholesterol and 0.5% sodium cholate) (Purina diet #21539). EE or test compound was administered once daily by gavage in a methylcellulose/tween vehicle (0.1 ml per mouse) for 5 weeks. At the end of the experimental period, the liver was collected and uterine wet weight was recorded.

NF-κB = assay: HAECT-1 NF-κB luciferase reporter assay in Ad5-wt-ER infected cells (IL-1β induced); type: cell-based, human; conditions: Ad5-wt-ER infected HAECT-1 cells
Experimental: Control (no ER infection) cells were processed as above without Ad5-wt-hERα virus infection.
Cells were subsequently washed with 300 μL of Dulbecco's phosphate buffered saline and lysed in 50 μL of Cell Culture Lysis Reagent (Promega). Luciferase was determined on a Wallac Victor^2 Luminometer (Gaithersburg, Md.) using 10 μL of lysate and mixing with 100 μL of Promega Luciferase Assay reagent. Creatine kinase was determined from the rate of increase in A340 following addition of 100 μL of CK assay reagent (Sigma, cat. No 47-10) to the remainder of the cell lysate.
(§1) For IC50 and EC50 calculations, mean IL-6, luciferase or CK values versus log10 of the compound concentration were fitted to a four parameter logistic equation. The IC50/EC50 value, ‘Hill slope’, upper and lower limits of the curve were iteratively estimated.

IL-6 = assay: HAECT-1 IL-6 expression assay (ELISA) in Ad5-wt-ER infected cells (IL-1β induced); type: cell-based, human; conditions: Ad5-wt-ER infected HAECT-1 cells; for IC50: IL-1β, IL-6 ELISA; for IL-6 Efficacy: relative to the maximal inhibition observed with E2
Experimental: (§2) T-175 flasks of 100% confluent HAECT-1 cells (immortalized human aortic endothelial cells) were washed with 8 mL of HBSS (HEPES buffered saline solution) and infected for four hours with 6 mL of a 1:10 dilution of Ad5-wt-hERα virus (an adenovirus transfection vector that mediates CMV promoter driven expression of human ERα) in phenol red free Endothelial Cell Basal medium (Clonetics, San Diego Calif., Catalog #CC-3129) containing 0.25% bovine serum albumin (EBM-BSA). After four hours, the cells were washed with EBM-BSA and incubated overnight in the same medium. Following overnight incubation, the cells were washed with EBM-BSA and infected for 2 hours with 6 mL of a 1:10 dilution of Ad5-3×(NFκB). Luc virus (Adenovirus luciferase expression vector driven by 3 repeats of the MHC NFκb site 5′ to the thymidine kinase promoter) in EBM-BSA. After two hours, the cells were washed and incubated at 34° C. for 1 hour. The cells were then washed, trypsinized, counted and resuspended in 95% FBS/5% dimethylsulfoxide at a concentration of 4×10^6 cells/mL, frozen as 1 or 5 mL aliquots in cryo-vials and stored at −150° C. Control (no ER infection) cells were processed as above without Ad5-wt-hERα virus infection.
ERα infected HAECT-1 cells or control cells were thawed, diluted 42× in warm EBM-BSA, plated into 96-well plates at 0.1 mL/well and incubated for 4 h at 34° C. Test compounds were added to the cells as 2× stocks in EBM-BSA containing 2 ng/mL IL-1β (R&D Systems) and plates were returned to the incubator (34° C.). After 15-20 h, 100 μL aliquots of media were removed from the cells and assayed for IL-6 content using a BioSource human IL-6 ELISA Kit. Cells were subsequently washed with 300 μL of Dulbecco's phosphate buffered saline and lysed in 50 μL of Cell Culture Lysis Reagent (Promega). Luciferase was determined on a Wallac Victor^2 Luminometer (Gaithersburg, Md.) using 10 μL of lysate and mixing with 100 μL of Promega Luciferase Assay reagent. Creatine kinase was determined from the rate of increase in A340 following addition of 100 μL of CK assay reagent (Sigma, cat. No 47-10) to the remainder of the cell lysate.
as §1

creatine kinase (CK) = assay: HAECT-1 creatine kinase (CK) expression assay in Ad5-wt-ER infected cells; type: cell-based, human; conditions: relative to the maximal stimulation observed with E2; Ad5-wt-ER infected HAECT-1 cells
Experimental: as §2, with “Luc virus (Adenovirus luciferase expression vector driven by 3 repeats of the MHC NFκb site 5′ to the thymidine kinase promoter) in EBM-BSA. After two hours, the cells were washed and incubated at 34° C. for 1 hour.” left out, “Control (no ER infection) cells were processed as above without Ad5-wt-hERα virus infection.” left out
ERα infected HAECT-1 cells or control cells were thawed, diluted 42× in warm EBM-BSA, plated into 96-well plates at 0.1 mL/well and incubated for 4 h at 34° C. […] Luciferase was determined on a Wallac Victor^2 Luminometer (Gaithersburg, Md.) using 10 μL of lysate and mixing with 100 μL of Promega Luciferase Assay reagent. Creatine kinase was determined from the rate of increase in A340 following addition of 100 μL of CK assay reagent (Sigma, cat. No 47-10) to the remainder of the cell lysate. […]

Uterine Wet Weight Increase, Efficacy (%) (C57BL/6 mice) | Uterine Wet Weight Increase, Fold Increase (C57BL/6 mice) | IC50 (NF-κB; Homo sapiens, HAECT1, IL-1β, luciferase reporter) [nM] | IC50 (IL-6; Homo sapiens, HAECT1) [nM] | melting point [°C] | IC50 (IL-6) [nM] | SMILES | NF-κB Efficacy (NF-κB; relative to the maximal inhibition observed with E2) [%] | IL-6 Efficacy (IL-6) [%] | CK Efficacy (creatine kinase (CK)) [%]
100 | 5.0 |  |  |  |  | C#C[C@]1(O)CC[C@H]2[C@@H]3CCc4cc(O)ccc4[C@H]3CC[C@@]21C [EE, reference compound] |  |  | 
0 | 0 | 59 | 303 | 193 |  | C[C@H]1c2cc(F)ccc2-c2ccccc2N1S(=O)(=O)c1ccc(O)cc1 [Example 8, 4-[(S)-8-Fluoro-6-methyl-6H-phenanthridine-5-sulfonyl]-phenol] | 99 | 118 | 
 |  |  |  |  | 1.7 | C[C@]12CC[C@@H]3c4ccc(O)cc4CC[C@H]3[C@@H]1CC[C@@H]2O [Example E2, 17-β-estradiol, reference compound] |  | 100 | 100
 |  |  |  | 165.5 to 167.3 |  | C[C@H]1c2cc(F)ccc2-c2ccccc2N1S(=O)(=O)c1ccc(OS(N)(=O)=O)cc1 [Example 22, 4-{[(6S)-8-Fluoro-6-methylphenanthridin-5(6H)-yl]sulfonyl}phenyl sulfamate] |  |  | 
